Laboratory results from US9980943B2, “Methods of treating muscular dystrophy” (BOARD OF REGENTS OF THE NEVADA SYSTEM OF HIGHER EDUCATION, …, priority 2013, dated 2018).

Experiments:
Assay type in all cases: cell-based, mouse
[1] = test system: α7 integrin (LacZ reporter in α7+/LacZ myotubes); assay: Myotube α7 integrin FDG assay (Burkin assay in myotubes, 96-well); conditions: myotubes
[2] = test system: β-galactosidase in CMV-LacZ C2C12 myotubes; assay: CMV-LacZ secondary screen in C2C12 myotubes (β-Gal stabilizing assay); conditions: C2C12 CMV-LacZ myotubes, fold relative to DMSO
In short: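 First, C2C12 myoblasts were transfected with a linearized CMV-LACZ vector and clonal lines selected by FDG β-gal assay. Then cells were exposed to compounds at 0.5, 1, 5, 10, 20 and 40 μM in 96-well format, two replicates each, and β-gal measured.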

[3] = test system: α7 integrin (LacZ reporter in α7βgal+/− myoblasts); assay: Myoblast α7+/LacZ integrin FDG assay (Burkin assay in myoblasts, 96-well); conditions: α7+/LacZ myoblasts, 96-well
[4] = test system: β-galactosidase in CMV-LacZ C2C12 myoblasts; assay: CMV-LacZ secondary screen in C2C12 myoblasts (β-Gal stabilizing assay); conditions: CMV-LacZ C2C12 myoblasts
In short: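 C2C12 myoblasts stably carrying a linearized CMV-driven LacZ construct, clone chosen by β-gal level in the myoblast FDG assay. Compounds tested in 96-well dose-response at 0.5, 1, 5, 10, 20 and 40 μM, N=2 replicates per point, to detect β-gal stabilization.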

Compound | Burkin Assay in Myotubes, α7 integrin LacZ reporter signal relative to DMSO ([1]; 0.5 uM) | Burkin Assay in Myotubes, α7 integrin LacZ reporter signal relative to DMSO ([1]; 1 uM) | Burkin Assay in Myotubes, α7 integrin LacZ reporter signal relative to DMSO ([1]; 5 uM) | Burkin Assay in Myotubes, α7 integrin LacZ reporter signal relative to DMSO ([1]; 10 uM) | Burkin Assay in Myotubes, α7 integrin LacZ reporter signal relative to DMSO ([1]; 20 uM) | Burkin Assay in Myotubes, α7 integrin LacZ reporter signal relative to DMSO ([1]; 40 uM) | CMV-LACZ in Myotubes, signal relative to DMSO ([2]; 0.5 uM) | CMV-LACZ in Myotubes, signal relative to DMSO ([2]; 1 uM) | CMV-LACZ in Myotubes, signal relative to DMSO ([2]; 5 uM) | CMV-LACZ in Myotubes, signal relative to DMSO ([2]; 10 uM) | CMV-LACZ in Myotubes, signal relative to DMSO ([2]; 20 uM) | CMV-LACZ in Myotubes, signal relative to DMSO ([2]; 40 uM) | Burkin Assay in Myoblasts, signal relative to DMSO ([3]; 0.5 uM) | Burkin Assay in Myoblasts, signal relative to DMSO ([3]; 1 uM) | Burkin Assay in Myoblasts, signal relative to DMSO ([3]; 5 uM) | Burkin Assay in Myoblasts, signal relative to DMSO ([3]; 10 uM) | Burkin Assay in Myoblasts, signal relative to DMSO ([3]; 20 uM) | Burkin Assay in Myoblasts, signal relative to DMSO ([3]; 40 uM) | CMV-LACZ in Myoblasts (β-galactosidase activity relative to DMSO) ([4]; 0.5 uM) | CMV-LACZ in Myoblasts (β-galactosidase activity relative to DMSO) ([4]; 1 uM) | further results
COCCSc1ccccc1C(=O)Nc1cc(C)cc(C)c1 [MLS000675441-01] | 0.8552 | 1.071 | 0.9591 | 1.119 | 0.7476 | 0.7168 | 1.0074 | 1.1032 | 1.0460 | 1.0337 | 0.9578 | 0.9822 | 0.9397 | 0.8764 | 1.044 | 1.248 | 0.9015 | 0.8996 | 1.0332 | 0.9289 | CMV-LACZ in Myoblasts (β-galactosidase activity relative to DMSO) ([4]; 5 uM): 0.8800; CMV-LACZ in Myoblasts (β-galactosidase activity relative to DMSO) ([4]; 10 uM): 0.8690; CMV-LACZ in Myoblasts (β-galactosidase activity relative to DMSO) ([4]; 20 uM): 0.8656; CMV-LACZ in Myoblasts (β-galactosidase activity relative to DMSO) ([4]; 40 uM): 0.7437
COc1cccc(C(=O)COc2ccc3ccc(=O)oc3c2)c1 [MLS000677675-01] | 1.278 | 1.205 | 1.081 | 1.044 | 0.6675 | 0.6873 | 0.8619 | 0.9962 | 1.0578 | 1.0091 | 0.9918 | 1.2494 | 1.093 | 1.061 | 0.9873 | 1.028 | 1.004 | 0.9554 | 1.0343 | 1.1214 | CMV-LACZ in Myoblasts (β-galactosidase activity relative to DMSO) ([4]; 5 uM): 0.9905; CMV-LACZ in Myoblasts (β-galactosidase activity relative to DMSO) ([4]; 10 uM): 1.0373; CMV-LACZ in Myoblasts (β-galactosidase activity relative to DMSO) ([4]; 20 uM): 1.0763; CMV-LACZ in Myoblasts (β-galactosidase activity relative to DMSO) ([4]; 40 uM): 1.1578
